In patent EP1007024B1 (Pfizer Products Inc., priority 1997, dated 1999):
Where a name gives a salt, the structure may show the parent alone. Read-outs that look alike come from different tables or passages of the source.

Assays:
[1] = Screening test for inhibition of precipitation or gelation of sertraline lactate when chloride is added; format: physicochemical
Description: Sodium chloride was then added (as a concentrated solution) and the result observed. An excipient was considered beneficial if the solution remained clear and fluid. The more chloride that could be added to an excipient solution with the solution remaining dear, the more beneficial was the excipient.

physchem [2] = conditions: water
[3] = Screening of solubilizers for sertraline lactate solubility with and without chloride; conditions: water
physchem [4] = conditions: water, Sertraline Lactate Solubility, in water, excipient None
[5] = oral administration of known immediate-release dosage forms, plasma; cited from earlier work
[6] = Pharmacokinetics of 200 mg sertraline delivered to various portions of the gastrointestinal tract (four-way crossover); format: in vivo; conditions: human, plasma
Description: Dosing was via (1) oral tablets, or (2) infusion of a solution through a nasoenteric tube into the stomach, duodenum, or ileocecal region of the small intestine, or (3) infusion into the transverse colon via anal intubation.
The infusions were administered as a 2 mg/ml solution at a rate of 20 ml/min for 5 min.
Analysis was carried out by capillary gas chromatography with electron capture detection.

[7] = Side effects by visual analogue scales and PK/PD plots (Study I, Study II); format: in vivo, human
Description: (§1) In a subset of a larger double-blind, randomized, placebo-controlled parallel group study, healthy male human subjects were divided into two groups (Study 1). […] The tablets were administered with 50 ml water. Group B received two placebo tablets. All subjects were dosed after an overnight fast.
Prior to dosing and each blood sampling time, each subject filled out a questionnaire, which consisted of a series of "Visual Analogue Scales" in which the subject was required to rate, on a scale of 0-10, the severity of certain potential side effects. The subjects were instructed that "0" indicated an absent effect and "10" indicated the worst possible effect The subjects were instructed to interpolate between 0 and 10 for moderate side effects.
A total of 30 subjects completed Study I: 15 each in Groups A and B. For each side effect evaluated at 30 time points, a total of 900 individual visual-analogue-scale evaluations were obtained.

[8] = male, human, in vivo
Description: as §1
(§2) Analysis was carried out by capillary gas chromatography with electron capture detection. […] Tmax is the time at which Cmax is achieved.
(§3) The data from these four subjects were not included in the pharmacokinetic averages.

clinical = conditions: human, in vivo, 200 mg
Description: as §1, §2, §3

[9] = Group A, Ileocecal Infusion of 2 mg/ml solution
[10] = Group A, Stomach Infusion of 2 mg/ml solution
[11] = Group B, Colonic Infusion of 2 mg/ml solution
[12] = Group B, Duodenal Infusion of 2 mg/ml solution

For `O=C1O[C@H]([C@@H](O)CO)C(O)=C1O` [Ascorbic acid], the “Observation After NaCI Addition” value ([1]; sertraline lactate with excipient, NaCl 100 mM) was “predpitate”.

For `N[C@@H](Cc1c[nH]cn1)C(=O)O` [Histidine], the “Observation After NaCI Addition” value ([1]; sertraline lactate with excipient, NaCl 150 mM) was “slight precipitate”.

With `CN[C@H]1CC[C@@H](c2ccc(Cl)c(Cl)c2)c2ccccc21` [sertraline hydrochloride] the solubility (physchem [2]) was 2.5 mg/mL.

With `CN[C@H]1CC[C@@H](c2ccc(Cl)c(Cl)c2)c2ccccc21` [sertraline lactate] the solubility [3] was 125 mg/mL, the “Observation After NaCI Addition” value ([1]; sertraline lactate in water alone (control), NaCl 38 mM) was “gel/precipitate” and the solubility (physchem [4]) was about 125 mg/mL.

In the case of `CN[C@H]1CC[C@@H](c2ccc(Cl)c(Cl)c2)c2ccccc21` [sertraline], the Tmax [5] is given as 6 to 7 h, the Cmax [6, 9] is given as 27.3 ng/mL and the Tmax [6, 9] is given as 5 h. For the same compound, the Cmax [6, 10] was 35.6 ng/mL, the Tmax [6, 10] was 7 h and the Cmax ([6]; Group B, Colonic Infusion (transverse colon) of 2 mg/ml solution) was 10.9 ng/mL. For the same compound, the AUC [6, 11] was 179 ng·h/mL, the Tmax [6, 11] was 4.4 h and the AUC [6, 12] was 1270 ng·h/mL. It also gave a Cmax [6, 12] of 48.8 ng/mL, a Tmax [6, 12] of 3.7 h and a Cmax ([6]; po, Group A, Oral Tablet (two 100 mg immediate release tablets), group average) of 39.9 ng/mL. For the same compound, the Tmax ([6]; po, Group A, Oral Tablet, group average) was 7 h, the AUC ([6]; po, Group B, Oral Tablet) was 1150 ng·h/mL and the Tmax ([6]; po, Group B, Oral Tablet) was 6.7 h. For the same compound, the Cmax ([6]; po, Group B, Oral Tablet (two 100 mg immediate release tablets)) was 44.7 ng/mL, the “side effect score for diarrhea vs plasma sertraline concentration curve” value ([7]; Study 1, 200 mg bolus dose) was “clockwise hysteresis” and the “PK/PD plot, average visual analogue score for nausea vs plasma sertraline concentration” value ([7]; Study I, Group A, 200 mg bolus dose, Figure 1) was “clockwise hysteresis”. The “subjects with emesis (regurgitation)” value ([7]; Study II, 200 mg dose group) was “Four and four”, the “average Tmax” value [8] was 6 h and the AUC (clinical) was 1740 ng·h/mL. The Cmax (clinical; male) was about 70 ng/mL.
